Test results reported in patent US9968565B2, “Method for protection and improvement of liver health with meso-zeaxanthin compositions” (OMNIACTIVE HEALTH TECHNOLOGIES LIMITED, priority 2015, dated 2018).

System: HepG2 cells
Assay: In vitro fatty liver model, lipid content in oleic acid-treated HepG2 hepatocytes (Adipored staining)
Type: cell-based
Conditions: HepG2, 1.5 mM Oleic Acid + 100 uM
Method: HepG2 cells were seeded at a density of 5×10^4 cells/mL in 24 well plates and cultured to 100% confluency. Once 100% confluent, HepG2 Growth Media (ATCC-formulated Eagle's Minimum Essential Media (EMEM) 500 mL+10% FBS-50 mL+1% pen/strep antibiotic-5 mL) was […] fetal bovine serum (FBS) Free Growth Media (1 mL per well) for 24 hours. Following 24 hour FBS-free conditions, cells were treated with differing concentrations of Oleic Acid (0.5, 1.0, 1.5, 2.0 mM; Sigma O3008) to induce fatty liver conditions. From preliminary Adipored Staining data, 1.5 mM Oleic Acid (OA) was deemed the most appropriate concentration of OA to induce maximum steatosis (accumulation of large vacuoles of triglyceride fat in liver cells—thus it is abnormal retention of lipids within a cell) while remaining non-cytotoxic.

With `C[C@@H]1O[C@@H](OC[C@H]2O[C@@H](Oc3c(-c4ccc(O)c(O)c4)oc4cc(O)cc(O)c4c3=O)[C@H](O)[C@@H](O)[C@@H]2O)[C@H](O)[C@H](O)[C@H]1O` [Rutin] the “% Decrease in Lipid Content” value was 22% and the “Lipid Content” value was 23088.67.
